The text below walks through data of US7338950B2, “Amide compounds as ion channel ligands and uses thereof” (Renovis, Inc., priority 2003, dated 2008).

Series [1] deals with T1, VR1 receptor (capsaicin induced current in dorsal root ganglion (DRG) neurons) (Rattus norvegicus, UniProt O35433).
T1 construct: Dorsal root ganglion (DRG) neurons were recovered from either neonatal or adult rats; endogenous in cells; host or cells: primary rat dorsal root ganglion neurons
The series can be described thus: Whole-cell patch clamp electrophysiology, capsaicin induced current in DRG neurons. Type of series: cell-based. The protocol:
Dorsal root ganglion (DRG) neurons were recovered from either neonatal or adult rats and plated onto poly-D-lysine coated glass coverslips. The plated neurons were transferred into a chamber to allow drug solutions to be added to the cells using a computer-controlled solenoid-valve based perfusion system. The cells were imaged using standard DIC optics. Cells were patched using finely-pulled glass electrodes. Voltage-clamp electrophysiology experiments were carried out using an Axon Instruments Multiclamp amplified controlled by pCLAMP8 software.
The cells were placed into a whole-cell voltage clamp and help at a voltage of −80 mV while monitoring the membrane current in gap-free recording mode. 500 nM capsaicin was added for 30 seconds as a control. Test compounds at various concentrations at ranging from (10-1000 nM) were added to the cells for 1 minute prior to a 30 second capsaicin application. Differences between control experiments and drug positive capsaicin experiments were used to determine the efficacy of each test compound. All compounds that inhibited capsaicin induced current greater than 50% were considered positives.

The next series has as its target T2, CYP1A2 (Homo sapiens, UniProt P05177).
T2 sequence (P05177 1-516): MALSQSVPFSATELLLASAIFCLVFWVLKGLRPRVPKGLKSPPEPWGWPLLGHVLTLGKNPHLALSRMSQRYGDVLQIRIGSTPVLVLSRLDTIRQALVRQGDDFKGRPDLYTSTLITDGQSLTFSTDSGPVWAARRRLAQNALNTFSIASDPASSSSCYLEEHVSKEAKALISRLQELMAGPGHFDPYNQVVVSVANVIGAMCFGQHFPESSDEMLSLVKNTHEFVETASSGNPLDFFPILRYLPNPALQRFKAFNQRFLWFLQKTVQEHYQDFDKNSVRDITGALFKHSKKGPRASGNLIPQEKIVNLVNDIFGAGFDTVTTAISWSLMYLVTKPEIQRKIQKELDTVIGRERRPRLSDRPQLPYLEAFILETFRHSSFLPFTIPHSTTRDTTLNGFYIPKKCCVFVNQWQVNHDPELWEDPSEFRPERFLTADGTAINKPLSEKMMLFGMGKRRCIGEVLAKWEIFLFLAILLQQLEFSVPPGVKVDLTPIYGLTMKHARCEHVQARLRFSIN
The series can be described thus: Cytochrome p450 inhibition assessment, CYP1A2. The note with it: estimated, Hill equation fit. Type of series: biochemical. The protocol: (§1) The ability of test compounds to inhibit five major human cytochrome p450 isozymes was evaluated. Cytochrome p450 inhibition assays were performed on 96-well microtiter assay plates according to the protocols described in Gentest P450 inhibition instruction manuals. The assays were performed in duplicate at 8 concentrations with the upper concentration of 100 μM followed by a 1:3 serial dilution. Reactions were initiated by the addition of 100 μL of enzyme/substrate mix to 100 μL of cofactor/serial dilution mix, and terminated by addition of 75 μL of a 4:1 acentonitrile: 0.5 M Tris base solution or by 2N NaOH for CYP3A4/DBF. Fluorescence was measured using a fluorescence plate reader (FLUOstar model 403, BMG Lab Technologies, Durham, N.C.). For reactions with inhibition greater than 50%, IC50 values were determined by fitting the data to the Hill equation using software GraphPad Prism (Version 4.02, GraphPad Software, San Diego, Calif.).

For the next series, the target named is CYP2C19 (Homo sapiens, UniProt P33261). The series can be described thus: Cytochrome p450 inhibition assessment, CYP2C19. Type of series: biochemical. The note with it: estimated, Hill equation fit. As for the experimental part:
as §1

Series [2] is described as follows: Plasma protein binding, equilibrium dialysis, human plasma. Type of series: in vitro ADME. As to conditions: human plasma (sodium citrate), pH 7.4, 37° C., at least 22 hours, read-out: human plasma protein binding (% Bound). The protocol: Membranes from Harvard/Amika with a molecular weight cutoff of 5,000 were rinsed with dH2O then placed in pH 7.4 PBS supplied by Gibco. The membranes were allowed to soak for 1 hour. A stock of the test article was pooled with Warfarin, Atropine at 2 mM in DMSO. The test article was then dosed into human plasma in sodium citrate, Rat Plasma, and Mouse Plasma to a final 10 μM concentration (0.5% DMSO v/v). The pre-soaked membranes were then placed into dialysis chambers. 500 μL of PBS was added to one side of the chamber, and 500 μL of the Matrix containing the test article was added to the other side of the chamber.
The chambers were then placed into an enclosed, heated rocker, which was pre-warmed to 37° C. and allowed to reach equilibrium for at least 22 hours. After 22 hours both sides were sampled. 100 μL of the donor side was added to 500 μL of PBS. 100 μL of the PBS side was added to 20 μL of fresh matrix. Samples then were crashed with 1:1 Acetonitrile and centrifuged at 10,000 RPM for 10 minutes. […]
Standards were prepared in a 1:5 plasma: PBS mixture at 5, 1.5, 0.5, 0.15, 0.05, 0.015 and 0.005 μM concentrations. […] Protein binding values were calculated as follows: % Bound=[(Concentration in Donor−Concentration in Receiver)/(Concentration in Donor)]×100. % Recovery=[(Concentration in donor+Concentration in Receiver)]/(Concentration in Normal Initial)]×100

Series [3] in a line: Pharmacokinetic profile after intravenous and oral administration. Type of series: in vivo. The note with it: male, Sprague-Dawley, rat, plasma, rats. As for the experimental part:
The pharmacokinetic profile of Compound 18 was evaluated following intravenous and oral administration in rats. Sprague-Dawley male rats obtained from Charles River, San Diego, Calif. were acclimated for 24 hours.
Compound 18 was formulated at a concentration of 0.5 mg/mL for IV administration at a 1 mg/kg dose and 1 mg/mL for oral administration at a 5 mg/kg dose. All animals were weighed before dosing. The body weight was used to calculate the actual dose for each animal. The intravenous dose was administered through the jugular vein catheter in less than 1 minute. The oral dose volume was 1.5 mL for all PO rats administered through oral lavage.
For IV dosing, blood samples were collected using a pre-heparinized syringe via the carotid artery catheter before dosing and at t=2, 5, 15, 30, 60, 120, 180, 360, and 480 minutes post dosing. For PO dosing, blood samples were collected using a pre-heparinized syringe via the carotid artery catheter before dosing and at t=5, 15, 30, 60, 120, 180, 360, and 480 minutes post dosing. 250 uL of blood was obtained at each time point from each animal. Equal volumes of 0.9% normal saline were replaced to prevent dehydration. The whole blood samples were maintained on ice until centrifugation. Blood samples were centrifuged at 14,000 rpm for 10 minutes at 4° C., and the upper plasma layer was transferred into a clean vial and store at −80° C.

Series [4] has as its system VR1 receptor (293 cells expressing capsaicin-insensitive VR1 receptor variants). The series can be described thus: High throughput screening of VR1 antagonists using a calcium imaging assay (Fura2, pH 5.1 stimulus).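 Also: Fura2 ratiometric fluorescence read every 4 s over 3 min, response taken as peak ratio minus baseline before pre-treatment, compound pre-treatment preceding acid challenge.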 The note with it: 1 uM compound; inhibition of calcium ion influx.
Excerpt: A dual wavelength ratiometric dye, Fura2, was used as an indicator of relative levels of calcium ions in a 96 well format using a bench top scanning fluorometer with integrated fluidics and temperature control (Flex Station, Molecular Devices).
A dual wavelength ratiometric dye, Fura2, was used as an indicator of relative levels of [Ca2+] in a 96 well format using a bench top scanning fluorometer with integrated fluidics and temperature control (Flex Station, Molecular Devices).
293 cells were grown on PDL coated 96-well black-walled plates, in the presence of a DMEM medium containing 5% Penstrep, 5% Glutamax, 200 ug/mL Hygromycin, 5 μg/mL Blasticide and 10% heat inactivated FBS. Prior to assay, the cells were loaded with 5 μg/mL Fura2 in normal saline solution at 37° C. for 40 minutes. Cells were then washed with normal saline to remove the dye.
The assay consists of two stages; a pre-treatment phase followed by a treatment phase.
50 μl of a compound solution was added to the cells (Pre-treatment). Immediately following, 50 μl of the test compound in a saline solution at pH 5.1 was added. […] Changes in wavelength measurements were made throughout the course of the experiment in 4 second intervals over a period of 3 minutes. Responses were measured as peak fluorescence ratio after test compound addition minus baseline fluorescence ratio prior to pre-treatment and were calculated using SoftMaxPro softwareData were expressed as percentage inhibition calculated using Excel as follows:
[5] abbreviates: route not stated (IV 1 mg/kg, PO 5 mg/kg).

T1 sequence (O35433 whole entry): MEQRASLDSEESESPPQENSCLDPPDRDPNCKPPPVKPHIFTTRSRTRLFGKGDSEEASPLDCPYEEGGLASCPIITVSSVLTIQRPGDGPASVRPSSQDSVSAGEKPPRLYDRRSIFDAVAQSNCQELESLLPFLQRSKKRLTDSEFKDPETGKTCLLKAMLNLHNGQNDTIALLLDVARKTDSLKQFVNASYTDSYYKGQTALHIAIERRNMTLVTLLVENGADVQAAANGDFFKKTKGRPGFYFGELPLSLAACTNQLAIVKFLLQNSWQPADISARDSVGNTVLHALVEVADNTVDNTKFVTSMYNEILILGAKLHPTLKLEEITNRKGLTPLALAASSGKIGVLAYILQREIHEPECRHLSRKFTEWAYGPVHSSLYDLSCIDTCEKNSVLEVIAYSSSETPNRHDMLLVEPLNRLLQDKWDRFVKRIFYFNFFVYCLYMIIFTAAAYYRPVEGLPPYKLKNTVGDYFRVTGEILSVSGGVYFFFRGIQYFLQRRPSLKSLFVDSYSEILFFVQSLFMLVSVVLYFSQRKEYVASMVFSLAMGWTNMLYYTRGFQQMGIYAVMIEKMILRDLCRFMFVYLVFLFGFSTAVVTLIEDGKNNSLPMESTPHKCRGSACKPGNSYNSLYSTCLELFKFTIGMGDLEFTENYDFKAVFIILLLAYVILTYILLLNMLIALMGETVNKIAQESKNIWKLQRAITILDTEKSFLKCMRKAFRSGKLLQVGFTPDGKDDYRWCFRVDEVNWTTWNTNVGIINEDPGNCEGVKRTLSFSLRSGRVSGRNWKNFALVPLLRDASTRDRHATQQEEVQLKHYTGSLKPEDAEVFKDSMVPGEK
Sequence of CYP2C19 (P33261 whole entry): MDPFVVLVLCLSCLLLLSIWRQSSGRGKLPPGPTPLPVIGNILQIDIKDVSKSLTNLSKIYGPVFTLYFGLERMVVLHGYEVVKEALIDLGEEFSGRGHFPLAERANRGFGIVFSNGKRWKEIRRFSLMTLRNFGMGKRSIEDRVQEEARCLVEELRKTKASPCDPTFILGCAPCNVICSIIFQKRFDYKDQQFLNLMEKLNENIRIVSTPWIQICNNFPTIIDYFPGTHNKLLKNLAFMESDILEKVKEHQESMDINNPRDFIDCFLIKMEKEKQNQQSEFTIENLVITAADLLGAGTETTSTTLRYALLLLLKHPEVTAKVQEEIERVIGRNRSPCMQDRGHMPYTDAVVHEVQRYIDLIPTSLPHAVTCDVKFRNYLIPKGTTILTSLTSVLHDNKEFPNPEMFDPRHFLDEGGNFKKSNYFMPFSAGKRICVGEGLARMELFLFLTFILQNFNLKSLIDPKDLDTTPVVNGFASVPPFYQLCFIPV

In the case of `COc1ccc(CCNC(=O)c2ccc(-c3ncccc3Cl)cc2)cc1OC` [Compound 18], in series [1] (DRG neuron, 100 nM, treatment time 20 seconds, 500 nM capsaicin, rat DRG neurons), the inhibition at 0.1 µM was less than 75%. On CYP1A2, the 50% inhibitory concentration (IC50) was 97.5 µM. Moreover, the IC50 on CYP2C19 was 26.9 µM. Besides, in series [2], the fraction unbound at 22 h, 10 µM is less than 0.002. For the same molecule, the bioavailability in series [3] (PO 5 mg/kg vs IV 1 mg/kg, read-out: Oral Bioavailability (% F)) amounted to 30.1%. For the same molecule, in series [3] (setting [5]), the highest level (Cmax) was 1750 nM and the Tmax was 3 h. Besides, in series [3] (route not stated (IV 1 mg/kg, PO 5 mg/kg), read-out: Clearance (Cl) (converted)), the clearance was 8.83 mL/min/kg. In addition, the Vd in series [3] (route not stated (IV 1 mg/kg, PO 5 mg/kg), read-out: Volume of distribution (Vd)) is 2.82 L/kg. In series [3] (route not stated (IV 1 mg/kg, PO 5 mg/kg), read-out: half life (t½) (converted)), the half-life was 3.71 h.

Take `O=C(NCc1ccc(Cl)c(Cl)c1)c1ccc(-c2ncccc2Cl)cc1` [Compound 24]: the “dose response of inhibiting a capsaicin induced calcium ion influx (FIG. 4)” value in series [1] (20 nM, 40 nM, 100 nM and 200 nM) is recorded as “increasing effectiveness”. The same molecule returned an inhibition at 0.2 µM in series [1] (DRG neuron, 200 nM, treatment time 25 seconds, 500 nM capsaicin, rat DRG neurons) of 100%.

As to `COc1cc(NC(=O)c2ccc(-c3ncccc3Cl)cn2)cc(OC)c1OC` [Compound 1356], the “% Inhibition @ 1 uM” value in series [4] is reported as “+ (compound exhibited 0-25% inhibition of calcium ion influx induced by capsaicin stimulation)”.

With `O=C(Nc1ccc2cn[nH]c2c1)c1ccc(-c2ncccc2Cl)cn1` [Compound 1357], the “% Inhibition @ 1 uM” value in series [4] was “++++ (compound exhibited 75% or greater inhibition of calcium ion influx induced by capsaicin stimulation)”.

For the molecule `CCCOc1ccc(NC(=O)c2ccc(-c3ncccc3Cl)cn2)cc1` [Compound 1358], the “% Inhibition @ 1 uM” value in series [4] is recorded as “+ (compound exhibited 0-25% inhibition of calcium ion influx induced by capsaicin stimulation)”.

In the case of `O=C(Nc1ccc(OC(F)(F)F)cc1)c1ccc(-c2ncccc2Cl)cn1` [Compound 1360], the “% Inhibition @ 1 uM” value in series [4] is recorded as “+ (compound exhibited 0-25% inhibition of calcium ion influx induced by capsaicin stimulation)”.

As to `O=C(Nc1cccc(OC(F)(F)F)c1)c1ccc(-c2ncccc2Cl)cn1` [Compound 1361], in series [4], the “% Inhibition @ 1 uM” value is listed as “++ (compound exhibited 25-50% inhibition of calcium ion influx induced by capsaicin stimulation)”.

On to `CC(C)Oc1cccc(NC(=O)c2ccc(-c3ncccc3Cl)cn2)c1` [Compound 1362], for which, in series [4], the “% Inhibition @ 1 uM” value was “+ (compound exhibited 0-25% inhibition of calcium ion influx induced by capsaicin stimulation)”.

Turning to `O=C(Nc1ccc(F)c(F)c1)c1ccc(-c2ncccc2Cl)cn1` [Compound 1363], the “% Inhibition @ 1 uM” value in series [4] is reported as “++++ (compound exhibited 75% or greater inhibition of calcium ion influx induced by capsaicin stimulation)”.

With `CCOc1cccc(NC(=O)c2ccc(-c3ncccc3Cl)cn2)c1` [Compound 1364], the “% Inhibition @ 1 uM” value in series [4] was “++++ (compound exhibited 75% or greater inhibition of calcium ion influx induced by capsaicin stimulation)”.
